The text below walks through data of ChEMBL document CHEMBL4706528, “The design, synthesis and anti-tumor mechanism study of new androgen receptor degrader” (Eur J Med Chem, 2020).

Assay [1] has as its system GES1. Nature of the assay: Cytotoxicity against androgen-negative human GES1 cells assessed as cell growth inhibition measured after 72 hrs by SRB assay. The class given is cell-based. Particulars: GES1, 72 h.
For assay [2], the system named is MCF7. The assay is described as follows: Antiproliferative activity against androgen-positive human MCF7 cells assessed as cell growth inhibition measured after 72 hrs by SRB assay. The assay is classed as functional, cell-based. Particulars: MCF7, 72 h.
For assay [3], the system named is LNCaP. The assay is described as follows: Antiproliferative activity against androgen-positive human LNCaP cells assessed as cell growth inhibition measured after 72 hrs by SRB assay. The assay is classed as functional, cell-based.
Assay [4] relates to LNCaP C4-2B. The assay is described as follows: Antiproliferative activity against androgen-sensitive positive human LNCaP C4-2B cells assessed as cell growth inhibition measured after 72 hrs by SRB assay. The assay is classed as functional, cell-based.
Assay [5] relates to SGC-7901. The assay is described as follows: Antiproliferative activity against androgen-positive human SGC-7901 cells assessed as cell growth inhibition measured after 72 hrs by SRB assay. Particulars: SGC-7901, 72 h. The assay is classed as functional, cell-based.
For assay [6], the system named is PC-3. Nature of the assay: Antiproliferative activity against androgen-negative human PC-3 cells assessed as cell growth inhibition measured after 72 hrs by SRB assay. The class given is functional, cell-based. Particulars: PC-3, 72 h.
A short description of assay [7]: Cytotoxicity against androgen-negative human WPMY-1 cells assessed as cell growth inhibition measured after 72 hrs by SRB assay. The assay is classed as cell-based. Particulars: WPMY-1, 72 h.
In assay [8] the target is T1, Androgen receptor (Homo sapiens) (UniProt P10275).
T1 sequence (whole entry): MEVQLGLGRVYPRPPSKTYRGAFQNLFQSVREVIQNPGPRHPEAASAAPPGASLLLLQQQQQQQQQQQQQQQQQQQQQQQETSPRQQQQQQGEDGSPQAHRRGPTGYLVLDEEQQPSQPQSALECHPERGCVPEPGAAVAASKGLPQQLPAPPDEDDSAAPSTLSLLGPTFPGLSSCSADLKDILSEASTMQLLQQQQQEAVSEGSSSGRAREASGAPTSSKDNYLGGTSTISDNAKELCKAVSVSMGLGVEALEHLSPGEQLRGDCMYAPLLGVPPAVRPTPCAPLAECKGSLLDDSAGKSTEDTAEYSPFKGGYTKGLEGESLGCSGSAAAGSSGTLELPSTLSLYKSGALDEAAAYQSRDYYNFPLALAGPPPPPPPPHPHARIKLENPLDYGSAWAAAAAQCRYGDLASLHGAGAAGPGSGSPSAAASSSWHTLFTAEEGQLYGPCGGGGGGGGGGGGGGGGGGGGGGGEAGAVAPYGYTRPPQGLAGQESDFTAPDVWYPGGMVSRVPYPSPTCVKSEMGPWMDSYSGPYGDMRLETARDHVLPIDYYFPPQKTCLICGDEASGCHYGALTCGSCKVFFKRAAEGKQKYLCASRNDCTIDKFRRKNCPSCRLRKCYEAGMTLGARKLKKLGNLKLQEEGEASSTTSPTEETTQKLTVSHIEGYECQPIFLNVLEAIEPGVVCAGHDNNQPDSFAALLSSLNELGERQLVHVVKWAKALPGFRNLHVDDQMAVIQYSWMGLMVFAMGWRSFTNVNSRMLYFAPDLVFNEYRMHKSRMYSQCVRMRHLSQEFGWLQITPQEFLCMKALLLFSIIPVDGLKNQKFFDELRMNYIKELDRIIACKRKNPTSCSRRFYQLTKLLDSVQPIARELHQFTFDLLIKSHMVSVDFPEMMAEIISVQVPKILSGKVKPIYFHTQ
The assay is described as follows: Binding affinity to androgen receptor LBD (unknown origin) at 10 uM incubated for 4 hrs under dark by fluorescence polarization based binding assay relative to R1881.

The structures appear in SMILES notation. A value given as a limit tells only on which side of the number the result lay.

In the case of `CC1(C)C(=O)N(c2ccc(C#N)c(C(F)(F)F)c2)C(=S)N1CCCn1cc(COCCOCCOC(=O)CC23CC4CC(CC(C4)C2)C3)nn1`, the IC50 in assay [1] is above 80 µM; in assay [2], 9.12 µM; in assay [3] it was 4.06 µM; in assay [4], 6.03 µM; in assay [5], 4.11 µM; in assay [6], above 80 µM. For the same compound, in assay [7], the IC50 is above 80 µM. In assay [8], this compound showed an Activity of 74.6%.

For `CC1(C)C(=O)N(c2ccc(C#N)c(C(F)(F)F)c2)C(=S)N1CCCCn1cc(COCCOCCOC(=O)CC23CC4CC(CC(C4)C2)C3)nn1`, the IC50 in assay [1] was above 80 µM; in assay [2], 13.3 µM; in assay [3] it was 1.86 µM; in assay [4] it was 12.3 µM; in assay [5], 7.79 µM; in assay [6], above 80 µM. The IC50 in assay [7] was above 80 µM. In assay [8], this compound showed an Activity of 87.8%.

As to `CC1(C)C(=O)N(c2ccc(C#N)c(C(F)(F)F)c2)C(=S)N1CCCn1cc(COCCOCCOCCOC(=O)CC23CC4CC(CC(C4)C2)C3)nn1`, the IC50 in assay [1] is above 80 µM; in assay [2], 7.73 µM; in assay [3] it was 3.97 µM; in assay [4], 5.8 µM; in assay [5], 4.98 µM; in assay [6], above 80 µM. Besides, the IC50 in assay [7] was above 80 µM. In assay [8], this compound came in with an Activity of 79.5%.

For the compound `CC1(C)C(=O)N(c2ccc(C#N)c(C(F)(F)F)c2)C(=O)N1CCCn1cc(COCCOCCOCCOC(=O)CC23CC4CC(CC(C4)C2)C3)nn1`, the IC50 in assay [3] is 6.66 µM; in assay [4], 9.95 µM; in assay [6] it was above 80 µM; in assay [7], above 80 µM. Further, the Activity in assay [8] worked out at 33.9%.

For the compound `CC1(C)C(=O)N(c2ccc(C#N)c(C(F)(F)F)c2)C(=S)N1Cc1ccc(-n2cc(COCCOCCOCCOCCOCCOC(=O)CC34CC5CC(CC(C5)C3)C4)nn2)cc1`, the IC50 in assay [3] was above 80 µM; in assay [4] it was 12.2 µM; in assay [6], above 80 µM; in assay [7], above 80 µM. Further, the Activity in assay [8] stood at 39.1%.

As to `CC1(C)C(=O)N(c2ccc(C#N)c(C(F)(F)F)c2)C(=S)N1CCCn1cc(COCCCOC(=O)CC23CC4CC(CC(C4)C2)C3)nn1`, the IC50 in assay [3] was 6.64 µM; in assay [4], 10.6 µM; in assay [6], above 80 µM; in assay [7] it was above 80 µM. The same compound showed an Activity in assay [8] of 31.6%.

Regarding `CC1(C)C(=O)N(c2ccc(C#N)c(C(F)(F)F)c2)C(=S)N1Cc1ccc(OCCOCCOCCOC(=O)CC23CC4CC(CC(C4)C2)C3)cc1`, the IC50 in assay [3] is above 80 µM; in assay [4] it was 14.6 µM; in assay [6], above 80 µM; in assay [7], above 80 µM. Also, in assay [8], the Activity was 32%.

Turning to `CC1(C)C(=O)N(c2ccc(C#N)c(C(F)(F)F)c2)C(=O)N1Cc1cn(CCOCCOCCOC(=O)CC23CC4CC(CC(C4)C2)C3)nn1`, the IC50 in assay [3] is 7.7 µM; in assay [4], 8.34 µM; in assay [6], above 80 µM; in assay [7], above 80 µM. This compound also had an Activity in assay [8] of 46.7%.
